Measured values as given in patent publication US20240099996A1, “METHODS FOR TREATING CANCER” (Radius Pharmaceuticals, Inc., priority 2015, published 2024).
Counter-ions that a name gives are not always drawn.

Experiment: Phase 1 dose escalation study in healthy post-menopausal women, treatment related AEs
Assay type: in vivo
Procedure: The subjects were 40-75 years old with BMI of 18.0-30 kg/m^2. Subjects having evidence of clinically relevant pathology, increased risk of stroke or of history venous thromboembolic events, or use of concomitant medication less than 14 days prior to admission to clinical research center (paracetamol allowed up to 3 days prior) were excluded. Dosing
The subjects were treated with placebo or at least one dose p.o., q.d. after a light breakfast for 7 days at dose levels of 200 mg, 500 mg, 750 mg and 1000 mg, respectively.

CCNCCc1ccc(CN(CC)c2cc(OC)ccc2[C@@H]2CCc3cc(O)ccc3C2)cc1 [RAD1901, (6R)-6-(2-(N-(4-(2-(ethylamino)ethyl)benzyl)-N-ethylamino)-4-methoxyphenyl)-5,6,7,8-tetrahydronaphthalen-2-ol dihydrochloride]
3 (21) n(%): Oesophageal pain Gr2 (500 mg, N = 14)
2 n(%): Dizziness Gr1 (500 mg, N = 14) | Flatulance Gr1 (500 mg, N = 14) | Salivary hypersecretion Gr1 (500 mg, N = 14)
2 (14) n(%): Dyspepsia Gr2 (500 mg, N = 14) | Dysphagia Gr2 (500 mg, N = 14) | Nausea Gr2 (500 mg, N = 14)
1 (13) n(%): Abdominal discomfort Gr1 (750 mg, N = 8) | Abdominal discomfort Gr2 (750 mg, N = 8) | Abdominal distension Gr1 (750 mg, N = 8) | Abdominal pain Gr1 (750 mg, N = 8) | Dizziness Gr1 (750 mg, N = 8) | Dysphagia Gr2 (750 mg, N = 8) | Flatulance Gr1 (750 mg, N = 8) | Myalgia Gr1 (750 mg, N = 8)
3 (20) n(%): Abdominal discomfort Gr1 (200 mg, N = 15) | Dyspepsia Gr1 (200 mg, N = 15) | Headache Gr1 (200 mg, N = 15)
3 (38) n(%): Dysphagia Gr1 (750 mg, N = 8) | Headache Gr1 (750 mg, N = 8)
3 n(%): Abdominal pain Gr1 (500 mg, N = 14) | Diarrhoea Gr1 (500 mg, N = 14) | Nausea Gr1 (500 mg, N = 14)
4 n(%): Hiccups Gr1 (500 mg, N = 14)
2 (25) n(%): Hiccups Gr1 (750 mg, N = 8) | Hot flush Gr1 (750 mg, N = 8) | Nausea Gr1 (750 mg, N = 8)
2 (13) n(%): Abdominal pain Gr1 (200 mg, N = 15) | Abdominal pain Gr2 (200 mg, N = 15) | Flatulance Gr1 (200 mg, N = 15) | Hot flush Gr1 (200 mg, N = 15) | Myalgia Gr1 (200 mg, N = 15) | Odynophagia Gr1 (200 mg, N = 15) | Oesophageal pain Gr2 (200 mg, N = 15) | Salivary hypersecretion Gr1 (200 mg, N = 15) | Sensation of a foreign body Gr1 (200 mg, N = 15) | Vomiting Gr1 (200 mg, N = 15)
5 n(%): Dyspepsia Gr1 (500 mg, N = 14)
4 (50) n(%): Dyspepsia Gr1 (750 mg, N = 8)
5 (36) n(%): Vomiting Gr2 (500 mg, N = 14)
1 n(%): Abdominal distension Gr1 (500 mg, N = 14) | Dysphagia Gr1 (500 mg, N = 14) | Headache Gr1 (500 mg, N = 14) | Odynophagia Gr1 (500 mg, N = 14) | Oesophageal pain Gr1 (500 mg, N = 14) | Sensation of a foreign body Gr1 (500 mg, N = 14) | Vomiting Gr1 (500 mg, N = 14)
0 n(%): Abdominal discomfort Gr2 (200 mg, N = 15) | Abdominal discomfort Gr3 (200 mg, N = 15) | Abdominal distension Gr3 (200 mg, N = 15) | Abdominal pain Gr3 (200 mg, N = 15) | Diarrhoea Gr1 (200 mg, N = 15) | Diarrhoea Gr2 (200 mg, N = 15) | Diarrhoea Gr3 (200 mg, N = 15) | Dizziness Gr2 (200 mg, N = 15) | Dizziness Gr3 (200 mg, N = 15) | Dyspepsia Gr2 (200 mg, N = 15) | Dyspepsia Gr3 (200 mg, N = 15) | Dysphagia Gr1 (200 mg, N = 15) | Dysphagia Gr2 (200 mg, N = 15) | Dysphagia Gr3 (200 mg, N = 15) | Flatulance Gr2 (200 mg, N = 15) | Flatulance Gr3 (200 mg, N = 15) | Headache Gr2 (200 mg, N = 15) | Headache Gr3 (200 mg, N = 15) | Hiccups Gr2 (200 mg, N = 15) | Hiccups Gr3 (200 mg, N = 15) | Hot flush Gr2 (200 mg, N = 15) | Hot flush Gr3 (200 mg, N = 15) | Myalgia Gr3 (200 mg, N = 15) | Nausea Gr2 (200 mg, N = 15) | Nausea Gr3 (200 mg, N = 15) | Odynophagia Gr2 (200 mg, N = 15) | Odynophagia Gr3 (200 mg, N = 15) | Oesophageal pain Gr1 (200 mg, N = 15) | Oesophageal pain Gr3 (200 mg, N = 15) | Salivary hypersecretion Gr2 (200 mg, N = 15) | Salivary hypersecretion Gr3 (200 mg, N = 15) | Sensation of a foreign body Gr2 (200 mg, N = 15) | Sensation of a foreign body Gr3 (200 mg, N = 15) | Vomiting Gr2 (200 mg, N = 15) | Vomiting Gr3 (200 mg, N = 15) | Abdominal discomfort Gr1 (500 mg, N = 14) | Abdominal discomfort Gr2 (500 mg, N = 14) | Abdominal discomfort Gr3 (500 mg, N = 14) | Abdominal distension Gr2 (500 mg, N = 14) | Abdominal distension Gr3 (500 mg, N = 14) | Abdominal pain Gr2 (500 mg, N = 14) | Abdominal pain Gr3 (500 mg, N = 14) | Diarrhoea Gr2 (500 mg, N = 14) | Diarrhoea Gr3 (500 mg, N = 14) | Dizziness Gr2 (500 mg, N = 14) | Dizziness Gr3 (500 mg, N = 14) | Dyspepsia Gr3 (500 mg, N = 14) | Dysphagia Gr3 (500 mg, N = 14) | Flatulance Gr2 (500 mg, N = 14) | Flatulance Gr3 (500 mg, N = 14) | Headache Gr3 (500 mg, N = 14) | Hiccups Gr2 (500 mg, N = 14) | Hiccups Gr3 (500 mg, N = 14) | Hot flush Gr2 (500 mg, N = 14) | Hot flush Gr3 (500 mg, N = 14) | Myalgia Gr1 (500 mg, N = 14) | Myalgia Gr3 (500 mg, N = 14) | Nausea Gr3 (500 mg, N = 14) | Odynophagia Gr3 (500 mg, N = 14) | Oesophageal pain Gr3 (500 mg, N = 14) | Salivary hypersecretion Gr2 (500 mg, N = 14) | Salivary hypersecretion Gr3 (500 mg, N = 14) | Sensation of a foreign body Gr2 (500 mg, N = 14) | Sensation of a foreign body Gr3 (500 mg, N = 14) | Abdominal discomfort Gr3 (750 mg, N = 8) | Abdominal distension Gr2 (750 mg, N = 8) | Abdominal distension Gr3 (750 mg, N = 8) | Abdominal pain Gr2 (750 mg, N = 8) | Abdominal pain Gr3 (750 mg, N = 8) | Diarrhoea Gr1 (750 mg, N = 8) | Diarrhoea Gr2 (750 mg, N = 8) | Diarrhoea Gr3 (750 mg, N = 8) | Dizziness Gr2 (750 mg, N = 8) | Dizziness Gr3 (750 mg, N = 8) | Dyspepsia Gr2 (750 mg, N = 8) | Dyspepsia Gr3 (750 mg, N = 8) | Dysphagia Gr3 (750 mg, N = 8) | Flatulance Gr2 (750 mg, N = 8) | Flatulance Gr3 (750 mg, N = 8) | Headache Gr2 (750 mg, N = 8) | Headache Gr3 (750 mg, N = 8) | Hiccups Gr2 (750 mg, N = 8) | Hiccups Gr3 (750 mg, N = 8) | Hot flush Gr2 (750 mg, N = 8) | Hot flush Gr3 (750 mg, N = 8) | Myalgia Gr2 (750 mg, N = 8) | Myalgia Gr3 (750 mg, N = 8)
5 (33) n(%): Nausea Gr1 (200 mg, N = 15)
1 (7) n(%): Abdominal distension Gr1 (200 mg, N = 15) | Abdominal distension Gr2 (200 mg, N = 15) | Dizziness Gr1 (200 mg, N = 15) | Hiccups Gr1 (200 mg, N = 15) | Myalgia Gr2 (200 mg, N = 15) | Headache Gr2 (500 mg, N = 14) | Myalgia Gr2 (500 mg, N = 14) | Odynophagia Gr2 (500 mg, N = 14) | Vomiting Gr3 (500 mg, N = 14)
6 n(%): Hot flush Gr1 (500 mg, N = 14)
